Data taken from patent US20100055099A1, “Diagnostics and Treatments for VEGF-Independent Tumors” (priority 2008, published 2010).

Tests used:
[1] = system: primary epithelial cells from PyMT.epiVEGF−/− tumors; test: Cell migration assay, response to HGF; assay type: cell-based, mouse; conditions: HGF 40 ng/ml, 18 hours, primary tumors from PyMT.epiVEGF−/− mice
Source text: (§1) Primary epithelial cells, designated as K0.1, K0.2, K0.3 and K0.4, were isolated from PyMT.epiVEGF−/− tumors. Primary epithelial cells, designated as WT. 1, WT.2, WT.3, WT.4 and WT.5, were isolated from in PyMT.epiVEGF+/+ tumors. WT.c is epithelial cells from a cell line created from PyMT.VEGF+/+.loxP tumor. KO.c is epithelial cells from a cell line created from PyMT.VEGF+/+.loxP tumors wherein VEGF was knocked out by Adenovirus expressing Cre-recombinase (Adeno-Cre) infection in vitro. Epithelial-specific Cre-loxP recombination was confirmed through immunocytochemistry with anti-Cre recombinase antibody. VEGF expression level was not detectable in Ko.c cell lines by ELISA.
(§2) Migration assays were performed using BD Falcon™ FluoroBlok™ 24-Multiwell Insert System, 8 um pore size (BD Biosciences, Bedford, Mass.). The plates were coated with 5 ug/ml Fibronectin (Sigma) for 2 hours at 37° C. Cells in 300 μl assay medium (0.5% FBS, DMEM/F12) were added to the upper chamber. HGF 40 ng/ml in 750 ul assay medium was added to the lower chamber, and cells were incubated at 37° C. for 18 hours. Cells on the lower surface were fixed in MeOH and stained with YO-PRO-1 (Molecular Probes, Eugene, Oreg.). Images were acquired and analyzed using the ImageXpress Micro platform (MDS Analytical; Sunnyvale, Calif.). The Count Nuclei application in Metamorph was used to identify and count migrated cells.

WT.c cell line = test: Cell migration assay, response to HGF; assay type: cell-based, mouse; conditions: HGF 40 ng/ml, 18 hours, WT.c cells
Source text: as §1, §2

[2] = system: primary epithelial cells from PyMT.epiVEGF+/+ tumors; test: Cell migration assay, response to HGF; assay type: cell-based, mouse; conditions: HGF 40 ng/ml, 18 hours, primary tumors from PyMT.epiVEGF+/+ mice
Source text: as §1, §2

KO.c cell line = test: Cell migration assay, response to HGF; assay type: cell-based, mouse; conditions: HGF 40 ng/ml, 18 hours, KO.c cells
Source text: as §1, §2

xenograft models = conditions: most xenograft models tested; cited from earlier work

Substance	average increase in migratory response to HGF [1]	fold increase in migration with HGF treatment (WT.c cell line)	average increase in migratory response to HGF [2]	fold increase in migration with HGF treatment (KO.c cell line)	tumor angiogenesis (xenograft models)	tumor growth (xenograft models)
HGF: hepatocyte growth factor, added at 40 ng/ml to the lower chamber in the migration assay	2.5 fold	1.5 fold	1.8 fold	2.3 fold	–	–
bevacizumab: humanized anti-VEGF monoclonal antibody	–	–	–	–	reduced	significantly inhibited
